In US20230085307A1, “PYRIDAZINONE COMPOUND AND HERBICIDE” (NISSAN CHEMICAL CORPORATION, priority 2019, published 2023):

Tests used:
lambsquarters [1] = experiment: Test Example 5: herbicidal effect by foliage application, plastic box (Table 20, symbol O); assay type: in vivo, lambsquarters (Chenopodium album); conditions: amount of applied herbicide 320 g/ha; foliage application after 14-day growth; evaluated three weeks after application
In short: (§1)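 Sow seeds spot-wise in sterilized diluvial soil; cover with ~1.5 cm soil. Grow 14 days in greenhouse, 25° C. to 30° C. Spray foliage with emulsion diluted to predetermined amount. Rate effect after 3 weeks.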

blackgrass [2] = experiment: Test Example 4: herbicidal effect by soil treatment (Table 19, symbol J); assay type: in vivo, blackgrass (Alopecurus myosuroides); conditions: amount of applied herbicide 320 g/ha
In short: (§2)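 Soil-surface application: an emulsion agent diluted with water to the predetermined dose is sprayed uniformly over seeds lying under roughly 1.5 cm of sterilized diluvial soil. Boxes stay in a greenhouse at 25° C. to 30° C. Three weeks later, each species is graded on previously defined criteria.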

windgrass [3] = experiment: Test Example 4: herbicidal effect by soil treatment (Table 19, symbol L); assay type: in vivo, windgrass (Apera spica-venti); conditions: amount of applied herbicide 320 g/ha
In short: as §2

lambsquarters [4] = experiment: Test Example 4: herbicidal effect by soil treatment (Table 19, symbol O); assay type: in vivo, lambsquarters (Chenopodium album); conditions: amount of applied herbicide 320 g/ha
In short: as §2

wild oat [5] = experiment: Test Example 5: herbicidal effect by foliage application, plastic box (Table 20, symbol I); assay type: in vivo, wild oat (Avena fatua); conditions: amount of applied herbicide 320 g/ha; foliage application after 14-day growth; evaluated three weeks after application
In short: as §1

oval-leafed pondweed = experiment: Test Example 1: herbicidal activity, application before weed generation under submerged conditions (Table 16, symbol C); assay type: in vivo, oval-leafed pondweed (Monochoria vaginalis); conditions: amount of applied herbicide 320 g/ha
In short: (§3)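 Emulsion formulation, water-diluted to set dose, was put onto the flooded surface (4 cm depth, alluvial soil) the same day weeds were sown and 2.5-leaf rice transplanted. After 3 weeks at 25-30 °C under glass, each species was rated 0 (≤5% kill) to 5 (≥90% kill).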

wild oat [6] = experiment: Test Example 4: herbicidal effect by soil treatment (Table 19, symbol I); assay type: in vivo, wild oat (Avena fatua); conditions: amount of applied herbicide 320 g/ha
In short: as §2

velvetleaf [7] = experiment: Test Example 4: herbicidal effect by soil treatment (Table 19, symbol M); assay type: in vivo, velvetleaf (Abutilon theophrasti); conditions: amount of applied herbicide 320 g/ha
In short: as §2

redroot pigweed [8] = experiment: Test Example 5: herbicidal effect by foliage application, plastic box (Table 20, symbol N); assay type: in vivo, redroot pigweed (Amaranthus retroflexus); conditions: amount of applied herbicide 320 g/ha; foliage application after 14-day growth; evaluated three weeks after application
In short: as §1

Chinese sprangletop = experiment: Test Example 3: herbicidal effect by foliage application, Wagner pot (Table 18, symbol D); assay type: in vivo, chinese sprangletop (Leptochloa chinensis); conditions: 320 g/ha
In short: (§4)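 Plants were sown in alluvial soil held under 0.1–0.5 cm standing water and grown 14 days in a greenhouse at 25–30 °C. An emulsifiable formulation, water-diluted to the set dose, was then sprayed onto the foliage, and effects were scored three weeks later using previously defined criteria.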

Italian ryegrass [9] = experiment: Test Example 4: herbicidal effect by soil treatment (Table 19, symbol K); assay type: in vivo, Italian ryegrass (Lolium multiflorum); conditions: amount of applied herbicide 320 g/ha
In short: as §2

redroot pigweed [10] = experiment: Test Example 4: herbicidal effect by soil treatment (Table 19, symbol N); assay type: in vivo, redroot pigweed (Amaranthus retroflexus); conditions: amount of applied herbicide 320 g/ha
In short: as §2

persian speedwell = experiment: Test Example 5: herbicidal effect by foliage application, plastic box (Table 20, symbol R); assay type: in vivo, Persian speedwell (Veronica persica); conditions: amount of applied herbicide 320 g/ha; foliage application after 14-day growth; evaluated three weeks after application
In short: as §1

late watergrass = experiment: Test Example 1: herbicidal activity, application before weed generation under submerged conditions (Table 16, symbol A); assay type: in vivo, late watergrass (Echinochloa oryzicola); conditions: amount of applied herbicide 320 g/ha
In short: as §3

chickweed [11] = experiment: Test Example 5: herbicidal effect by foliage application, plastic box (Table 20, symbol P); assay type: in vivo, common chickweed (Stellaria media); conditions: amount of applied herbicide 320 g/ha; foliage application after 14-day growth; evaluated three weeks after application
In short: as §1

Japanese bulrush = experiment: Test Example 1: herbicidal activity, application before weed generation under submerged conditions (Table 16, symbol B); assay type: in vivo, Japanese bulrush (Schoenoplectus juncoides); conditions: amount of applied herbicide 320 g/ha
In short: as §3

southern crabgrass [12] = experiment: Test Example 5: herbicidal effect by foliage application, plastic box (Table 20, symbol F); assay type: in vivo, southern crabgrass (Digitaria ciliaris); conditions: amount of applied herbicide 320 g/ha; foliage application after 14-day growth; evaluated three weeks after application
In short: as §1

chickweed [13] = experiment: Test Example 4: herbicidal effect by soil treatment (Table 19, symbol P); assay type: in vivo, common chickweed (Stellaria media); conditions: amount of applied herbicide 320 g/ha
In short: as §2

southern crabgrass [14] = experiment: Test Example 4: herbicidal effect by soil treatment (Table 19, symbol F); assay type: in vivo, southern crabgrass (Digitaria ciliaris); conditions: amount of applied herbicide 320 g/ha
In short: as §2

velvetleaf [15] = experiment: Test Example 5: herbicidal effect by foliage application, plastic box (Table 20, symbol M); assay type: in vivo, velvetleaf (Abutilon theophrasti); conditions: amount of applied herbicide 320 g/ha; foliage application after 14-day growth; evaluated three weeks after application
In short: as §1

windgrass [16] = experiment: Test Example 5: herbicidal effect by foliage application, plastic box (Table 20, symbol L); assay type: in vivo, windgrass (Apera spica-venti); conditions: amount of applied herbicide 320 g/ha; foliage application after 14-day growth; evaluated three weeks after application
In short: as §1

green foxtail [17] = experiment: Test Example 5: herbicidal effect by foliage application, plastic box (Table 20, symbol G); assay type: in vivo, green foxtail (Setaria viridis); conditions: amount of applied herbicide 320 g/ha; foliage application after 14-day growth; evaluated three weeks after application
In short: as §1

barnyard grass [18] = experiment: Test Example 3: herbicidal effect by foliage application, Wagner pot (Table 18, symbol H); assay type: in vivo, barnyard grass (Echinochloa crus-galli); conditions: 320 g/ha
In short: as §4

Italian ryegrass [19] = experiment: Test Example 5: herbicidal effect by foliage application, plastic box (Table 20, symbol K); assay type: in vivo, Italian ryegrass (Lolium multiflorum); conditions: amount of applied herbicide 320 g/ha; foliage application after 14-day growth; evaluated three weeks after application
In short: as §1

rice flat sedge = experiment: Test Example 3: herbicidal effect by foliage application, Wagner pot (Table 18, symbol E); assay type: in vivo, rice flat sedge (Cyperus iria); conditions: 320 g/ha
In short: as §4

blackgrass [20] = experiment: Test Example 5: herbicidal effect by foliage application, plastic box (Table 20, symbol J); assay type: in vivo, blackgrass (Alopecurus myosuroides); conditions: amount of applied herbicide 320 g/ha; foliage application after 14-day growth; evaluated three weeks after application
In short: as §1

barnyard grass [21] = experiment: Test Example 4: herbicidal effect by soil treatment (Table 19, symbol H); assay type: in vivo, barnyard grass (Echinochloa crus-galli); conditions: amount of applied herbicide 320 g/ha
In short: as §2

barnyard grass [22] = experiment: Test Example 5: herbicidal effect by foliage application, plastic box (Table 20, symbol H); assay type: in vivo, barnyard grass (Echinochloa crus-galli); conditions: amount of applied herbicide 320 g/ha; foliage application after 14-day growth; evaluated three weeks after application
In short: as §1

green foxtail [23] = experiment: Test Example 4: herbicidal effect by soil treatment (Table 19, symbol G); assay type: in vivo, green foxtail (Setaria viridis); conditions: amount of applied herbicide 320 g/ha
In short: as §2

Structure (SMILES) | Herbicidal effect by foliage application, O: lambsquarters (lambsquarters [1]) | Herbicidal effect by foliage application, I: wild oat (wild oat [5]) | Herbicidal effect, C: oval-leafed pondweed (oval-leafed pondweed) | Herbicidal effect by foliage application, N: redroot pigweed (redroot pigweed [8]) | herbicidal effect on Chinese sprangletop (D) (Chinese sprangletop) | Herbicidal effect by foliage application, R: persian speedwell (persian speedwell) | Herbicidal effect, A: late watergrass (late watergrass) | Herbicidal effect by foliage application, P: chickweed (chickweed [11]) | Herbicidal effect, B: Japanese bulrush (Japanese bulrush) | Herbicidal effect by foliage application, F: southern crabgrass (southern crabgrass [12]) | Herbicidal effect by foliage application, M: velvetleaf (velvetleaf [15]) | Herbicidal effect by foliage application, L: windgrass (windgrass [16]) | Herbicidal effect by foliage application, G: green foxtail (green foxtail [17]) | herbicidal effect on barnyard grass (H) (barnyard grass [18]) | Herbicidal effect by foliage application, K: Italian ryegrass (Italian ryegrass [19]) | herbicidal effect on rice flat sedge (E) (rice flat sedge) | Herbicidal effect by foliage application, J: blackgrass (blackgrass [20]) | Herbicidal effect by foliage application, H: barnyard grass (barnyard grass [22]) | other results
CCOc1cc(F)ccc1-c1sc2cc(F)c(F)cc2c1-c1c(O)c(C)nn(C)c1=O [5-031] | 5 (Herbicidal rate of 90% or more (almost completely withered)) | 4 (Herbicidal rate of 70% or more and less than 90%) | 0 (Herbicidal rate of 5% or less (almost no effect)) | 5 (Herbicidal rate of 90% or more (almost completely withered)) | 4 (Herbicidal rate of 70% or more and less than 90%) | 5 (Herbicidal rate of 90% or more (almost completely withered)) | 2 (Herbicidal rate of 20% or more and less than 40%) | 5 (Herbicidal rate of 90% or more (almost completely withered)) | 0 (Herbicidal rate of 5% or less (almost no effect)) | 5 (Herbicidal rate of 90% or more (almost completely withered)) | 5 (Herbicidal rate of 90% or more (almost completely withered)) | 5 (Herbicidal rate of 90% or more (almost completely withered)) | 5 (Herbicidal rate of 90% or more (almost completely withered)) | 5 (Herbicidal rate of 90% or more (almost completely withered)) | 2 (Herbicidal rate of 20% or more and less than 40%) | 5 (Herbicidal rate of 90% or more (almost completely withered)) | 5 (Herbicidal rate of 90% or more (almost completely withered)) | 5 (Herbicidal rate of 90% or more (almost completely withered)) | J: blackgrass, herbicidal effect grade (blackgrass [2]): 3 (Herbicidal rate of 40% or more and less than 70%); L: windgrass, herbicidal effect grade (windgrass [3]): 5 (Herbicidal rate of 90% or more (almost completely withered)); O: lambsquarters, herbicidal effect grade (lambsquarters [4]): 5 (Herbicidal rate of 90% or more (almost completely withered)); I: wild oat, herbicidal effect grade (wild oat [6]): 1 (Herbicidal rate of 5% or more and less than 20%); M: velvetleaf, herbicidal effect grade (velvetleaf [7]): 4 (Herbicidal rate of 70% or more and less than 90%); K: Italian ryegrass, herbicidal effect grade (Italian ryegrass [9]): 0 (Herbicidal rate of 5% or less (almost no effect)); N: redroot pigweed, herbicidal effect grade (redroot pigweed [10]): 5 (Herbicidal rate of 90% or more (almost completely withered)); P: chickweed, herbicidal effect grade (chickweed [13]): 3 (Herbicidal rate of 40% or more and less than 70%); F: southern crabgrass, herbicidal effect grade (southern crabgrass [14]): 4 (Herbicidal rate of 70% or more and less than 90%); H: barnyard grass, herbicidal effect grade (barnyard grass [21]): 3 (Herbicidal rate of 40% or more and less than 70%); G: green foxtail, herbicidal effect grade (green foxtail [23]): 5 (Herbicidal rate of 90% or more (almost completely withered))
CCOc1ccccc1-c1sc2cc(Cl)c(Cl)cc2c1-c1c(O)c(C)nn(C)c1=O [5-045] | 1 (Herbicidal rate of 5% or more and less than 20%) | 0 (Herbicidal rate of 5% or less (almost no effect)) | 0 (Herbicidal rate of 5% or less (almost no effect)) | 3 (Herbicidal rate of 40% or more and less than 70%) | 3 (Herbicidal rate of 40% or more and less than 70%) | 5 (Herbicidal rate of 90% or more (almost completely withered)) | 0 (Herbicidal rate of 5% or less (almost no effect)) | 5 (Herbicidal rate of 90% or more (almost completely withered)) | 3 (Herbicidal rate of 40% or more and less than 70%) | 2 (Herbicidal rate of 20% or more and less than 40%) | 4 (Herbicidal rate of 70% or more and less than 90%) | 0 (Herbicidal rate of 5% or less (almost no effect)) | 3 (Herbicidal rate of 40% or more and less than 70%) | 4 (Herbicidal rate of 70% or more and less than 90%) | 0 (Herbicidal rate of 5% or less (almost no effect)) | 3 (Herbicidal rate of 40% or more and less than 70%) | 0 (Herbicidal rate of 5% or less (almost no effect)) | 3 (Herbicidal rate of 40% or more and less than 70%) | 
